Laboratory results from patent US9242978B2, “Phenylacetamide compound and pharmaceutical containing same” (KOWA COMPANY, LTD., priority 2012, dated 2016).
Like-named read-outs stand apart in the source and are kept apart here.

Legend:
[1] = biological target: T1, GST-GK derived from human liver GK (Homo sapiens, UniProt P35557); assay: In vitro GK activating action measurement test; type: biochemical; details: 10 min; test compound 1 μmol/L, glucose 2.5 mmol/L, 25° C.; read-out: GK activation rate (%)
T1 construct: made in house; host or cells: Escherichia coli DH5α
T1 sequence (P35557 1-466 isoform P35557-2): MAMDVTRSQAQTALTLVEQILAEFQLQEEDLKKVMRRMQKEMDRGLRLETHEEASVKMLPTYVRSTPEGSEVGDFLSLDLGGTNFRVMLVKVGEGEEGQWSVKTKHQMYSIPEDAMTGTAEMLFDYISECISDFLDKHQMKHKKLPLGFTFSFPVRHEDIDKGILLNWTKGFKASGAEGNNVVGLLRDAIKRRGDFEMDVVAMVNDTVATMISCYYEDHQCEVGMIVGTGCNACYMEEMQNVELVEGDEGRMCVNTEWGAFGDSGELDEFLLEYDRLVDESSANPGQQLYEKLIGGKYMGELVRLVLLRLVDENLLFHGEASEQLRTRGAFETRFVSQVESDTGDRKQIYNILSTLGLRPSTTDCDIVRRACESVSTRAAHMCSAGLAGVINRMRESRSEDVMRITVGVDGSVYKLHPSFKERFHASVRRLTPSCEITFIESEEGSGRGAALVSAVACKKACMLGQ
Source text: cDNA (GenBank Accession No. NM_033507, human glucokinase, variant 2) encoding human liver-type GK polypeptide was cloned by performing a polymerase chain reaction (hereinafter referred to as “PCR”) using a human liver cDNA library (Human liver QUICK-Clone cDNA, TAKARA BIO INC.), and the thus cloned cDNA was then introduced into an expression vector (pGEX-3X, GE Healthcare Japan) for glutathione S transferase (hereinafter referred to as GST) fusion proteins. The resulting vector was introduced into Escherichia coli (Competent high DH5α, Toyobo Co., Ltd.), and the transformed Escherichia coli was then cultured at 37° C. Thereafter, Isopropyl β-D-1-thiogalactopyranoside (final concentration: 1 mmol/L, Sigma Aldrich Japan) was added to the culture, and the obtained mixture was then cultured at 30° C. for 3 hours. Thereafter, a cell mass was recovered. The recovered cell mass was subjected to freezing-and-thawing, and the resulting cell mass was then suspended in Triton-X that had been added in a final concentration of 1% to a phosphate buffer, followed by disintegration with an ultrasonic disintegrator. The homogenate was centrifuged at 33,200 rpm at 4° C. for 1 hour. Thereafter, the supernatant was recovered, and a GST-GK fusion protein was then purified using a glutathione column (GSTrap FF, GE Healthcare Japan). The obtained GST-GK fusion protein was divided into some portions each having a small volume, and the thus divided proteins were then preserved at −80° C.
A GK assay was carried out at 25° C. at a final incubation volume of 100 μL using a flat-bottom 96-well assay plate. An assay buffer comprised 25 mmol/L Hepes buffer (pH 7.1), 25 mmol/L KCl, 2.5 mmol/L or 10 mmol/L D-glucose, 5 mmol/L ATP, 1 mmol/L nicotinamide adenine dinucleotide phosphate (abbreviated as NADP), 2 mmol/L MgCl2, 1 mmol/L dithiothreitol (DTT), 2 units/mL glucose-6 phosphate dehydrogenase (G6PDH), and 1 μg/mL GST-GK derived from human liver GK. ATP, G6PDH, and NADP were purchased from Roche Diagnostics. […] The thus mixed solution was preincubated in an incubator in which the temperature was controlled at 25° C. for 15 minutes. Subsequently, the reaction was initiated by adding 10 μL of the GST-GK solution to the reaction mixture, resulting in a final concentration of 0.1 μg/mL. After initiation of the reaction, an increase in the optical concentration at 340 nm (OD340) was monitored with a microplate spectrophotometer (Varsamax, Molecular Devices Japan K. K.) every 10 seconds over an incubation period of 10 minutes. An inclination of the OD340 increase was defined as raw data. The GK activating rate was indicated as a numerical value obtained from the expression: (Inclination of OD340 increase by addition of the test compound)/(inclination of OD340 increase without addition of the test compound). The results of the GK activating rate obtained at a test compound concentration of 1 μmol/L under the condition of a glucose concentration of 2.5 mmol/L are shown in the following table 2.

[2] = test system: normal mice (C57BL/6j mice); assay: Oral glucose tolerance test with normal mice after single administration of test compound; type: in vivo; details: 30 mg/kg oral, 2 g/kg glucose oral 30 minutes later, FIG. 1
Description: The test compound (Example 5) (30 mg/kg) suspended in 10%(v/v) Gelucire44/14 (GATTEFOSSE) was orally administered to normal mice (C57BL/6j mice, CLEA Japan, Inc.). Thirty minutes later, 2 g/kg glucose was orally administered to the mice. The blood glucose level was measured using an automatic blood glucose level measurement apparatus (Medisafe, TERUMO), before administration of the test compound, 25 minutes after administration of the test compound, and 15, 30, 60, and 120 minutes after administration of glucose. Thus, the action of the test compound to lower blood glucose level was evaluated.

[3] = test system: normal mice (C57BL/6j mice); assay: Transition in blood glucose levels after single administration of test compound to normal mice; type: in vivo; details: 30 mg/kg oral, 1, 2, 4 and 6 hours after administration, FIG. 2
Description: A test compound (30 mg/kg, Example 5) suspended in 10% (v/v) Gelucire 44/14 (GATTEFOSSE) was orally administered to normal mice (C57BL/6j mice, CLEA Japan, Inc.). The blood glucose level was measured using an automatic blood glucose level measurement apparatus (Medisafe, TERUMO), before administration of the test compound, and 1, 2, 4, and 6 hours after administration of the test compound. Thus, the hypoglycemic action of the test compound was evaluated.

[4] = Evaluation of organ selectivity (non-binding drug concentration in liver and pancreas after oral administration); type: in vivo, normal mice (C57BL/6j mice); details: mice, 150 minutes after administration
[5] = as above; type: in vivo, normal mice (C57BL/6j mice); details: mice, 150 minutes after administration; for concentration at 150 min: C57BL/6j, mouse, dose 30 mg/kg
Description: A test compound suspended in 10% (v/v) Gelucire 44/14 (GATTEFOSSE) was orally administered to normal mice (C57BL/6j mice, CLEA Japan, Inc.). The percentages of drugs that had not bound to proteins in the liver and the pancreas, which had been obtained by the in vitro test, were […] the total concentrations of the drugs in the liver and the pancreas obtained 150 minutes after administration of the drugs, so as to calculate the non-binding concentration of the drug in each case. The ratio of the non-binding concentration of the drug in the […] was calculated, and thus, liver selectivity was evaluated. As a comparative compound, PSN-GK1 described in non-patent document 11 (corresponding to Example 94 of patent document 2) was produced according to the method described in patent document 2, and the produced comparative compound was then evaluated in the same manner as described above (in the table, the comparative compound is indicated as PSN-GK1).

normal mice = details: low dose; non-patent document 11; cited from earlier work

Row | activity at 1 µM [1] | concentration at 150 min ([5]; liver, read-out: Non-binding concentration (ng/mL) Liver) | concentration at 150 min ([5]; pancreas, read-out: Non-binding concentration (ng/mL) Pancreas) | Selectivity Liver/pancreas ([4]; dose 1 mg/kg) | Selectivity Liver/pancreas ([4]; dose 10 mg/kg) | Non-binding concentration (ng/mL) Liver ([5]; dose 1 mg/kg) | Non-binding concentration (ng/mL) Pancreas ([5]; dose 1 mg/kg) | Non-binding concentration (ng/mL) Liver ([5]; dose 3 mg/kg) | Non-binding concentration (ng/mL) Pancreas ([5]; dose 3 mg/kg) | Selectivity Liver/pancreas ([5]; dose 3 mg/kg) | Non-binding concentration (ng/mL) Liver ([5]; dose 10 mg/kg) | Non-binding concentration (ng/mL) Pancreas ([5]; dose 10 mg/kg) | SMILES | blood glucose level in oral glucose tolerance test versus solvent alone [2] | blood glucose level after single administration versus solvent alone [3] | selectivity ratio at 150 min ([4]; C57BL/6j, mouse, liver and pancreas, dose 30 mg/kg) | hypoglycemic action on normal mice (normal mice)
1 | 561% | 47 ng/mL | 1.8 ng/mL |  |  |  |  |  |  |  |  |  | CCNC(=O)N1CC[C@H](C[C@@H](C(=O)Nc2ncc(F)s2)c2ccc(S(=O)(=O)C3CC3)cc2)C1 [Example 5, (S)-3-((R)-2-(4-(cyclopropylsulfonyl)phenyl)-3-((5-fluorothiazol-2-yl)amino)-3-oxopropyl)-N-ethylpyrrolidine-1-carboxamide] | lower than that of the mice orally administered with the solvent alone | almost equal to the blood glucose level of the mice orally administered with the solvent alone | 27 | 
2 |  |  |  | 1.0 | 1.2 | 0.56 ng/mL | 0.58 ng/mL | 1.4 ng/mL | 1.7 ng/mL | 0.8 | 7.4 ng/mL | 6.0 ng/mL | O=C(Nc1ncc(F)s1)[C@H](CC1CCOCC1)c1ccc(S(=O)(=O)C2CC2)cc1 [PSN-GK1, reference compound] |  |  |  | has a hypoglycemic action on normal mice
